For five compounds, TGI and GI50 results are on record in PubChem BioAssay (NCI).

Among the test systems are DU-145 prostate; MDA-MB-435; SF-268 CNS; SK-OV-3 ovarian; HT29 colon; HCT-15 colon; UACC-257 melanoma; OVCAR-8 ovarian; RPMI-8226 leukemia; SNB-19 CNS.
Holding throughout (assay): NCI anticancer screen, dose series, 48 h

Several values for one entry are separate records, joined by “and”; a condition that tells them apart may be missing. Equal values may be shown once.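 Each compound was tested at five concentrations against cells in 96-well plates for 48 hours. GI50 = concentration required for 50% inhibition of growth. At the TGI there is no net growth.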

As for `CCOC(=O)/C(=C\NC(C)(C)CO)c1nc2ccccc2[nH]1`, the TGI in the experiment on DU-145 prostate, with MDA-MB-435, with SF-268 CNS, with SK-OV-3 ovarian, in the experiment on HT29 colon and with HCT-15 colon was above 100 µM in each case. In addition, the TGI in the experiment on UACC-257 melanoma, with OVCAR-8 ovarian, in the experiment on RPMI-8226 leukemia and in the experiment on SNB-19 CNS was above 100 µM each time.
Regarding `C=C1c2nc3ccccc3n2C=C(c2ccc(Cl)cc2)N1c1ccc(OCCN2CCCCC2)cc1`, the GI50 in the experiment with DU-145 prostate is above 100 µM; with MDA-MB-435 it was 0.772 µM; with SK-OV-3 ovarian it was above 100 µM; with HT29 colon, above 100 µM; in the experiment on UACC-257 melanoma it was above 100 µM; in the experiment on SNB-19 CNS, 4.53 µM. In addition, the TGI with DU-145 prostate is above 100 µM; in the experiment with MDA-MB-435 it was 45 µM and > 100 µM; in the experiment with SF-268 CNS, 45 µM; in the experiment on SK-OV-3 ovarian, above 100 µM; in the experiment with HT29 colon it was above 100 µM; in the experiment with HCT-15 colon it was above 45 µM. Moreover, the TGI was 37.4 µM and > 100 µM with UACC-257 melanoma; above 45 µM in the experiment on OVCAR-8 ovarian; 45 µM in the experiment on RPMI-8226 leukemia; above 100 µM in the experiment on SNB-19 CNS.
Consider `Cn1cc(-c2nnc(-c3ccc(Cl)cc3)[nH]c2=O)c2ccccc21`, for which the TGI was above 51.8 µM in the experiment on DU-145 prostate; 1.4 µM with MDA-MB-435; above 100 µM in the experiment with SF-268 CNS; above 69.8 µM with SK-OV-3 ovarian; above 24.6 µM in the experiment on HT29 colon; above 100 µM in the experiment on HCT-15 colon. The TGI was above 24.3 µM in the experiment on UACC-257 melanoma, above 100 µM in the experiment with OVCAR-8 ovarian, 44.7 µM in the experiment with RPMI-8226 leukemia and above 54.7 µM in the experiment on SNB-19 CNS.
Regarding `O=c1[nH]c2cc([N+](=O)[O-])c(N/N=C/c3ccc(Cl)cc3Cl)c([N+](=O)[O-])c2[nH]1`, the TGI was above 100 µM with DU-145 prostate; above 100 µM in the experiment with MDA-MB-435; above 100 µM with SF-268 CNS; 77.5 µM with SK-OV-3 ovarian; above 100 µM with HT29 colon; above 100 µM in the experiment on HCT-15 colon. Besides, the TGI with UACC-257 melanoma, in the experiment on OVCAR-8 ovarian, in the experiment on RPMI-8226 leukemia and in the experiment on SNB-19 CNS was above 100 µM each time.
As to `O=C(O)CCCN=C(C1=C(O)C(=O)N(c2ccccc2)C1=O)c1ccccc1`, the TGI in the experiment on DU-145 prostate, with MDA-MB-435, with SF-268 CNS, with SK-OV-3 ovarian, with HT29 colon and with HCT-15 colon was above 100 µM in each case. The TGI in the experiment on UACC-257 melanoma, with OVCAR-8 ovarian, in the experiment with RPMI-8226 leukemia and with SNB-19 CNS was above 100 µM throughout.
